In publication PMC4436593, “Endoplasmic reticulum stress-independent activation of unfolded protein response kinases by a small molecule ATP-mimic” (eLife, 2015):
Entries after “also recorded” stand apart in the source; their conditions may differ.

Assays:
[1] = tested on: XBP1 mRNA-splicing reporter (IRE1-mediated) in HEK293T cells; assay: XBP1-luciferase splicing reporter in HEK293T cells; assay type: cell-based; conditions: Homo sapiens, HEK-293T, in the presence of Tm (2 μg/ml), read-out: IC50 of XBP1-luciferase-splicing reporter activation
Excerpt: A plasmid encoding a modified ER stress reporter construct consisting of a C-terminally FLAG-tagged firefly luciferase coding sequence fused to an N-terminal hemagglutinin-tagged tandem repeat of a partial sequence of XBP1 of human origin lacking its DNA-binding domain and containing the IRE1-cognate intron (pCAX-HA-2xXBP1ΔDBD(anATG)-LUC-F, kind gift of Takao Iwawaki [[Hosoda et al., 2010]]), was used as a template to generate a retroviral expression construct. The coding sequence of the reporter was amplified by PCR using primers with engineered BamHI and EcoRI sites and was subsequently cloned into the cognate sites of the retroviral expression vector pBABE.puro (Addgene) to generate construct DAA-A171. DAA-A171 was used to generate recombinant retroviral particles using standard methods and the resulting retroviral supernatant was used to transduce HEK293T cells, which were then subsequently selected with puromycin to create a stable reporter cell line.

[2] = tested on: XBP1 mRNA splicing in HEK293T cells; assay: XBP1 mRNA splicing by RT-PCR in HEK293T cells; assay type: cell-based, human; conditions: [AD60] = 1 μM, 4 hr
Procedure: To examine the effects of IPA in living cells, we monitored the UPR in HEK293T cells using RT-PCR to measure splicing of XBP1 mRNA. […] At a concentration of 2 μM IPA, splicing was induced within 2 hr (lane 5). […] We used tunicamycin (Tm), which induces ER stress by blocking N-linked glycosylation, as a positive control to induce the UPR (Figure 2A, lanes 7, and Figure 2B, lane 4).
Cells were lysed and total RNA was collected (Total RNA Kit 1, EZ-RNA, EZNA [USA]). PolyA^+ mRNA was reverse transcribed with M-MLV (Invitrogen), and the resulting cDNA was used as a template for PCR amplification across the fragment of XBP1 cDNA containing the intron. Primers used to amplify human XBP1: 5′-[…]-3′ and 5′-[…]-3′. To amplify murine XBP1: 5′-[…]-3′ and 5′-[…]-3′. PCR conditions were as follows: 95°C for 5 min, 95°C for 1 min, 58°C for 30 s, 72°C for 30 s, and 72°C for 5 min, with 20 cycles of amplification. PCR products were resolved on a 2.5% agarose tris-acetate EDTA (TAE) gel. As previously reported, a hybrid amplicon species consisting of unspliced Xbp-1 annealed to spliced Xbp-1 can also be produced through this PCR reaction and was visible as a slower migrating band above the unspliced amplicon. The same cDNA was used as template for PCR of DERLIN-3 and HERPUD1, both ATF6 targets, and GAPDH, which was used as loading control. Primers used included the following: DERLIN-3, 5′-[…]-3′ and 5′-[…]-3′; HERPUD1-1, 5′-[…]-3′ and 5′-[…]-3′; GAPDH, 5′-[…]-3′ and 5′-[…]-3′. PCR conditions were: 95°C × 5 min, 95°C × 1 min, 56°C × 30 s, 72°C for 30 s for 25 cycles, 72°C for 5 min at 4°C. PCR products were resolved on a 2% agarose TAE gel.

[3] = tested on: PERK and eIF2α phosphorylation in HEK293T cells; assay: PERK mobility shift and eIF2α phosphorylation by immunoblotting in HEK293T cells; assay type: cell-based
Procedure: To evaluate effects of IPA on the PERK branch, we measured the phosphorylation state of PERK and eIF2α by Western blotting. […] We also monitored PERK activation by phosphorylation of eIF2α, detected with a phospho-eIF2α-specific antibody (Figure 3C).
Cells were lysed in 50 mM Tris-HCl, 2% SDS, 10% glycerol, 0.01% bromophenol blue, pH 6.8 supplemented with phosphatase inhibitors (Sigma) and protease inhibitors (Roche). 30 μg to 50 μg of total protein was loaded on each lane of 8% or 10% SDS-PAGE gels. The separated proteins were then transferred onto nitrocellulose membranes for immunoblotting. The following antibodies and dilutions were used: anti-β-actin 1:10,000 (A5441, Sigma), anti-total PERK at 1:1000 (C33E10, Cell Signaling Technology), anti-phospho eIF2α at 1:1000 (3597S, Cell Signaling Technology), anti-total eIF2α at 1:1000 (L57A5, Cell Signaling Technology). After overnight incubation with primary antibody, membranes were washed in PBS with 0.05% Tween and incubated in HRP-coupled secondary antibody anti-rabbit (611–1302, Rockland) or anti-mouse (610–1302, Rockland) diluted at 1:5000 in wash buffer. Immunoreactive bands were detected by chemiluminescence.

HEK293T cells = assay: HEK293T cell viability (CellTiter-Blue, 24 hr); assay type: cell-based; conditions: 24 hr, 1 μM, listed as GSK
Procedure: HEK293T cells were grown in DMEM (Sigma) complete media containing 10% FBS, 10 units/ml penicillin (Invitrogen), and 10 μg/ml streptomycin (Invitrogen). Cells were plated at a density of 30,000 cells per well in 96-well black plates with clear flat bottoms (Corning, Sigma-Aldrich) 24 hr before the experiment. A 12-point semi-logarithmic dilution series of compounds was made starting at 30 μM not to exceed 0.1% DMSO after final dilution into the growth media. Viability assays were conducted over the course of 24 hr. Cell viability was determined using CellTiter-Blue (Promega) following the manufacturer's instructions. […] Experiments were done in triplicate, and mean values were computed for each data point.

[4] = tested on: protein translation in HEK293T cells; assay: Metabolic labeling: [35S] methionine incorporation in HEK293T cells; assay type: cell-based; conditions: IPA 1 μM + GSK 1 μM
Procedure: HEK293T cells (500,000 cells/ml) were plated in 12-well flat bottom culture cluster dishes (Costar, Fisher Scientific) 24 hr before the experiment. IPA (1 μM), or a combination of IPA with GSK2606414 (TRC inc. […] Cells lysates were kept on ice for 30 min before high-speed centrifugation followed by denaturation at 95°C. The samples were resolved on an SDS-polyacrylamide gel, which were then stained with Coomassie blue to ascertain protein loading. […] The resulting autoradiograms were quantified using ImageQuant software (Molecular Dynamics).

PERK = tested on: PERK; set-up: method as in Axten et al., 2012; Moreno et al., 2013; conditions: ref Axten et al., 2012; Moreno et al., 2013; read-out: EC50 of PERK inhibition in cells; cited from earlier work

Row | Structure (SMILES) | IC50 [1] | effect on Tm-induced XBP1 mRNA splicing ([2]; Tm) | effect on IPA-induced XBP1 mRNA splicing ([2]; up to highest IPA concentration tested) | effect of compound alone on the PERK pathway ([3]; GSK 1 μM alone) | effect on IPA-induced PERK and eIF2α phosphorylation ([3]; GSK 1 μM, IPA 0.5 and 1 μM) | effect on HEK293T cell viability at 1 μM (HEK293T cells) | effect on translation in IPA-treated cells [4] | EC50 (PERK)
1 | Nc1ncnc2c1c(-c1ccc(NC(=O)Nc3cccc(C(F)(F)F)c3)cc1)nn2C1CCCC1 [AD60, reference compound] | 0.75 µM | inhibited Tm-induced XBP1 mRNA splicing | fully ablated IPA-induced XBP1 mRNA splicing |  |  |  |  | 
2 | Cn1cc(-c2ccc3c(c2)CCN3C(=O)Cc2cccc(C(F)(F)F)c2)c2c(N)ncnc21 [GSK2606414, 7-methyl-5-(1-{[3-(trifluoromethyl)phenyl]acetyl}-2,3-dihydro-1H-indol-5-yl)-7H-p yrrolo[2,3-d]pyrimidin-4-amine, reference compound] |  |  |  | No effect on the pathway was observed | abolished IPA-induced PERK and eIF2α phosphorylation | No effect on viability was observed; also recorded: no cell toxicity | restored translation to baseline levels | […]
